According to ChEMBL document CHEMBL1201862, “PubChem BioAssay data set” (2004):
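Grown in 96-well plates, cells were treated for 48 hours with each compound at five concentrations. Insufficient inhibition: endpoint recorded as highest concentration tested. Abbreviation: GI50, concentration required for 50% inhibition of growth.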 Active and inactive are the calls of the source. No stated cut-off is given here; in the data, active = GI50 up to about 1.1 µM and inactive = higher.

Experiments:
Assay in all cases: NCI-60 cell line screen, 48 h
[1] = test system: A498
[2] = test system: A549
[3] = test system: ACHN
[4] = test system: DU-145
[5] = test system: HCT-116
[6] = test system: HCT-15
[7] = test system: HOP-92
[8] = test system: M14
[9] = test system: MDA-MB-231
[10] = test system: MOLT-4
[11] = test system: Malme-3M
[12] = test system: NCI-H460
[13] = test system: NCI/ADR-RES
[14] = test system: SK-MEL-28
[15] = test system: SN12C
[16] = test system: SR
[17] = test system: SW-620
[18] = test system: T47D
[19] = test system: U-251
[20] = test system: UO-31

Row | Compound | GI50 [1] | GI50 [2] | GI50 [3] | GI50 [4] | GI50 [5] | GI50 [6] [µM] | GI50 [7] | GI50 [8] | GI50 [9] | GI50 [10] | GI50 [11] | GI50 [12] | GI50 [13] | GI50 [14] | GI50 [15] | GI50 [16] | GI50 [17] | GI50 [18] | GI50 [19] | GI50 [20]
1 | CCCCCCCC1(N=[N+]=[N-])C(=O)Nc2ccccc2C1=O (stereo not given) | 0.971 µM (active) | 14.8 µM (inactive) | 14.4 µM (inactive) | 14.9 µM (inactive) | 17.3 µM (inactive) | 21.9 | 13.6 µM (inactive) | 17.7 µM (inactive) | 21.7 µM (inactive) | 10.4 µM (inactive) | 17.7 µM (inactive) | 21.4 µM (inactive) | 18.9 µM (inactive) | 16.1 µM (inactive) | 18.7 µM (inactive) | 24.2 µM (inactive) | 12.4 µM (inactive) | 14.6 µM (inactive) | 15.1 µM (inactive) | 12.7 µM (inactive)
2 | CCCCC(=O)OC[n+]1cccc(-c2c(COC(=O)NC(C)C)c(COC(=O)NC(C)C)c3n2CCC3)c1 | 25.8 µM (inactive) | 81.1 µM (inactive) | 21.3 µM (inactive) | 25.8 µM (inactive) | 37.2 µM (inactive) | 53.3 | 26.3 µM (inactive) | 40.5 µM (inactive) | 62.5 µM (inactive) | 8.93 µM (inactive) | 32.7 µM (inactive) | 15 µM (inactive) | 34.9 µM (inactive) | > 100 µM (inactive) | 31.8 µM (inactive) | 4.72 µM (inactive) | 38.5 µM (inactive) | > 83.2 µM (inactive) | 45.3 µM (inactive) | 27 µM (inactive)
